From ChEMBL document CHEMBL1144117, “Two new cytotoxic carbonimidic dichlorides from the nudibranch Reticulidia fungia” (J Nat Prod, 1999) come the findings set out here.

≈ marks a conversion by molar mass, not a printed value.

One assay deals with KB. As to the kind of experiment: Cytotoxicity against human KB cells after 72 hrs by MTT assay. It counts as functional, cell-based. For orientation: Tetrazolium assays rely on reduction of a dye to a coloured formazan, in cell work by metabolically active cells.
A further assay has as its system L1210. As to the kind of experiment: Cytotoxicity against mouse L1210 cells after 72 hrs by MTT assay. It counts as functional, cell-based. To be noted: L1210, 72 h.

By IC50 is commonly meant the concentration that gives 50% inhibition. A low value points to inhibition by little substance. `CC1(C)[C@@H](Cl)[C@H](O)C[C@]2(C)C=C(/C=C/N=C(Cl)Cl)CC[C@@H]12` [RETICULIDIN A]: the values for the IC50 in the assay on KB and in the assay on L1210 were 0.41 µg/mL (≈ 1.17 µM) and 0.59 µg/mL (≈ 1.68 µM), respectively.
For `CC1(C)[C@@H](Cl)[C@@H](O)C[C@]2(C)CC(/C=C/N=C(Cl)Cl)=CC[C@@H]12` [RETICULIDIN B], the IC50 in the assay with KB is 0.42 µg/mL (≈ 1.2 µM); with L1210, 0.11 µg/mL (≈ 0.314 µM).
